In ChEMBL document CHEMBL1133456, “Synthesis and anticonvulsant activity of novel and potent 6,7-methylenedioxyphthalazin-1(2H)-ones” (J Med Chem, 2000):

Columns and labels:
[1] = Relative lipophilicity expressed as Rm value; format: physicochemical; conditions: octanol/water
[2] = Anticonvulsant activity against audiogenic seizures in DBA/2 mice expressed as ED50 values in clonic phase; format: functional; conditions: Mus musculus
[3] = Anticonvulsant activity against audiogenic seizures in DBA/2 mice expressed as ED50 values in tonic phase; format: functional; conditions: Mus musculus
[4] = Toxic dose in DBA/2 mice; format: toxicity; conditions: DBA/2, mouse, in vivo
[5] = Ratio between TD50 and ED50 from the clonic phase of audiogenic seizures; format: ADME; conditions: read-out: Protective index
[6] = Anticonvulsant activity against audiogenic seizures in DBA/2 mice expressed as ED50 values in clonic phase; Values ranges from: 24.4-55.1; format: functional; conditions: Mus musculus
[7] = Toxic dose in DBA/2 mice; Values ranges from: 74.8-169; format: toxicity; conditions: DBA/2, mouse, in vivo
[8] = Ratio between TD50 and ED50 from the clonic phase of audiogenic seizures in mice; format: ADME, organism-based; conditions: mouse, in vivo; read-out: Protective index
[9] = Anticonvulsant activity against audiogenic seizures in DBA/2 mice expressed as ED50 values in tonic phase; Values ranges from: 19.4-50.6; format: functional; conditions: Mus musculus
[10] = Toxic dose in DBA/2 mice; Values ranges from: 72.4-135; format: toxicity; conditions: DBA/2, mouse, in vivo
[11] = Anticonvulsant activity against audiogenic seizures in DBA/2 mice expressed as ED50 values in tonic phases; Values ranges from: 4.02-19.9; format: functional; conditions: Mus musculus
[12] = Anticonvulsant activity against audiogenic seizures in DBA/2 mice expressed as ED50 values in clonic phase; Values ranges from: 6.52-35.4; format: functional; conditions: Mus musculus
[13] = Toxic dose in DBA/2 mice; Values ranges from: 36.1-82.9; format: toxicity; conditions: DBA/2, mouse, in vivo
[14] = Anticonvulsant activity against audiogenic seizures in DBA/2 mice expressed as ED50 values in clonic phase; Values ranges from: 22.0-35.1; format: functional; conditions: Mus musculus
[15] = Anticonvulsant activity against audiogenic seizures in DBA/2 mice expressed as ED50 values in tonic phase; Values ranges from: 16.1-31.5; format: functional; conditions: Mus musculus
[16] = Toxic dose in DBA/2 mice; Values ranges from: 59.6-132; format: toxicity; conditions: DBA/2, mouse, in vivo
[17] = Anticonvulsant activity against audiogenic seizures in DBA/2 mice expressed as ED50 values in clonic phase; […]; format: functional; conditions: Mus musculus
[18] = Anticonvulsant activity against audiogenic seizures in DBA/2 mice expressed as ED50 values in tonic phase; Values ranges from: 8.98-27.3; format: functional; conditions: Mus musculus
[19] = Toxic dose in DBA/2 mice; Values ranges from: 59.5-88.2; format: toxicity; conditions: DBA/2, mouse, in vivo
[20] = Anticonvulsant activity against audiogenic seizures in DBA/2 mice in clonic phase at a time interval of 30 min after intraperitoneal administration; Values ranges from: 9.04-49.8; format: functional; conditions: Mus musculus, ip, 0.5 h
[21] = Anticonvulsant activity against audiogenic seizures in DBA/2 mice in clonic phase at a time interval of 45 min after intraperitoneal administration; Values ranges from: 13.8-41.2; format: functional; conditions: Mus musculus, ip, 0.75 h
[22] = Anticonvulsant activity against audiogenic seizures in DBA/2 mice in clonic phase at a time interval of 60 min after intraperitoneal administration; Values ranges from: 18.8-47.0; format: functional; conditions: Mus musculus, ip, 1 h
[23] = Anticonvulsant activity against audiogenic seizures in DBA/2 mice after pretreatment with Aniracetam expressed as ED50 values in clonic phase; Values ranges from: 40.9-79.2; format: functional; conditions: Mus musculus
[24] = Anticonvulsant activity against audiogenic seizures in DBA/2 mice after pretreatment with Aniracetam expressed as ED50 values in tonic phase; Values ranges from: 21.9-46.8; format: functional; conditions: Mus musculus
[25] = Anticonvulsant activity against audiogenic seizures in DBA/2 mice in clonic phase at a time interval of 90 min after intraperitoneal administration; Values ranges from: 30.5-62.3; format: functional; conditions: Mus musculus, ip, 1.5 h
[26] = Anticonvulsant activity against audiogenic seizures in DBA/2 mice expressed as ED50 values in clonic phase; Values ranges from: 9.04-49.8; format: functional; conditions: Mus musculus
[27] = Anticonvulsant activity against audiogenic seizures in DBA/2 mice expressed as ED50 values in tonic phase; Values ranges from: 2.47-23.1; format: functional; conditions: Mus musculus
[28] = Anticonvulsant activity against audiogenic seizures in DBA/2 mice in clonic phase at a time interval of 120 min after intraperitoneal administration; format: functional; conditions: Mus musculus, ip, 2 h
[29] = Anticonvulsant activity against audiogenic seizures in DBA/2 mice in clonic phase at a time interval of 15 min after intraperitoneal administration; Values ranges from: 25.1-42.6; format: functional; conditions: Mus musculus, ip, 0.25 h
[30] = Anticonvulsant activity against ATPA induced seizures in DBA/2 mice expressed as ED50 values in tonic phase; Values ranges from: 22.7-44.8; format: functional; conditions: Mus musculus
[31] = Anticonvulsant activity against AMPA induced seizures in DBA/2 mice expressed as ED50 values in clonic phase; Values ranges from: 27.1-47.3; format: functional; conditions: Mus musculus
[32] = Anticonvulsant activity against ATPA induced seizures in DBA/2 mice expressed as ED50 values in clonic phase; Values ranges from: 25.8-57.7; format: functional; conditions: Mus musculus
[33] = Toxic dose in DBA/2 mice; Values ranges from: 44.3-81.6; format: toxicity; conditions: DBA/2, mouse, in vivo
[34] = Anticonvulsant activity against KA induced seizures in swiss mice; Values ranges from: 30.3-50.1; format: functional; conditions: Mus musculus
[35] = Anticonvulsant activity against Pentylenetetrazole (PTZ) induced seizures in Swiss mice; Values ranges from: 30.9-78.8; format: functional; conditions: Mus musculus
[36] = Anticonvulsant activity against maximal electroshock (MES) induced seizures in Swiss mice; Values ranges from: 29.9-57.3; format: functional; conditions: Mus musculus
[37] = Anticonvulsant activity against AMPA induced seizures in DBA/2 mice expressed as ED50 values in tonic phase; Values ranges from: 32.6-62.7; format: functional; conditions: Mus musculus
[38] = Toxic dose in DBA/2 mice; Values ranges from: 52.0-194; format: toxicity; conditions: DBA/2, mouse, in vivo
[39] = Toxic dose in DBA/2 mice; Values ranges from: 82.6-306; format: toxicity; conditions: DBA/2, mouse, in vivo
[40] = Anticonvulsant activity against audiogenic seizures in DBA/2 mice in clonic phase at a time interval of 45 min after intraperitoneal administration; Values ranges from: 27.2-52.1; format: functional; conditions: Mus musculus, ip, 0.75 h
[41] = Anticonvulsant activity against ATPA induced seizures in DBA/2 mice. activity is expressed as ED50 values in tonus phase; Values ranges from: 32.4-57.3; format: functional; conditions: Mus musculus
[42] = Anticonvulsant activity against ATPA induced seizures in DBA/2 mice. activity is expressed as ED50 values in clonus phase; Values ranges from: 45.4-89.7; format: functional; conditions: Mus musculus
[43] = Toxic does was determined in DBA/2 mice; Values ranges from: 47.5-122; format: toxicity; conditions: DBA/2, mouse
[44] = Anticonvulsant activity against audiogenic seizures in DBA/2 mice in clonic phase at a time interval of 30 min; format: functional; conditions: Mus musculus, 0.5 h
[45] = Anticonvulsant activity against audiogenic seizures in DBA/2 mice in clonic phase at a time interval of 45 min; format: functional; conditions: Mus musculus, 0.75 h
[46] = Anticonvulsant activity against audiogenic seizures in DBA/2 mice in clonic phase at a time interval of 60 min; format: functional; conditions: Mus musculus, 1 h
[47] = Anticonvulsant activity against audiogenic seizures in DBA/2 mice in clonic phase at a time interval of 90 min; format: functional; conditions: Mus musculus, 1.5 h
[48] = Anticonvulsant activity against KA induced seizures in DBA/2 mice; format: functional; conditions: Mus musculus
[49] = Anticonvulsant activity against AMPA induced seizures in DBA/2 mice expressed as ED50 values in clonic phase; format: functional; conditions: Mus musculus
[50] = Anticonvulsant activity against audiogenic seizures in DBA/2 mice after pretreatment with Aniracetam expressed as ED50 values in clonic phase; format: functional, Mus musculus
[51] = Anticonvulsant activity against audiogenic seizures in DBA/2 mice in clonic phase at a time interval of 120 min; format: functional; conditions: Mus musculus, 2 h
[52] = Anticonvulsant activity against audiogenic seizures in DBA/2 mice in clonic phase at a time interval of 15 min; format: functional; conditions: Mus musculus, 0.25 h
[53] = Anticonvulsant activity against AMPA induced seizures in DBA/2 mice expressed as ED50 values in tonic phase; format: functional; conditions: Mus musculus
[54] = Anticonvulsant activity against ATPA induced seizures in DBA/2 mice expressed as ED50 values in clonic phase; format: functional; conditions: Mus musculus
[55] = Anticonvulsant activity against ATPA induced seizures in DBA/2 mice expressed as ED50 values in tonic phase; format: functional; conditions: Mus musculus
[56] = Anticonvulsant activity against Pentylenetetrazole (PTZ) induced seizures in Swiss mice.; format: functional; conditions: Mus musculus
[57] = Anticonvulsant activity against maximal electroshock (MES) induced seizures in Swiss mice.; format: functional; conditions: Mus musculus

Row | Compound | Rm [1] | ED50 [2] [µmol/kg] | ED50 [3] [µmol/kg] | TD50 [4] [µmol/kg] | selectivity ratio [5] | selectivity ratio [8] | other results
1 | Nc1ccc(-c2nn(C(=O)NC3CCCCC3)c(=O)c3cc4c(cc23)OCO4)cc1 | 0.108 | 28.4 | 26.2 | 63.8 | 2.2 |  | 
2 | CCCCCNC(=O)n1nc(-c2ccc(N)cc2)c2cc3c(cc2c1=O)OCO3 | 0.101 | 13.2 | 5.34 | 56.6 | 4.3 |  | 
3 | Oc1nnc(-c2ccccc2)c2cc3c(cc12)OCO3 | -0.158 |  |  |  |  | 3.1 | ED50 [6]: 36.7 µmol/kg; TD50 [7]: 112 µmol/kg; ED50 [9]: 31.3 µmol/kg
4 | Nc1ccc(C2=NNC(=O)Cc3cc4c(cc32)OCO4)cc1 | -0.43 |  |  |  |  | 4.5 | TD50 [10]: 99.1 µmol/kg
5 | CNC(=O)n1nc(-c2ccc(N)cc2)c2cc3c(cc2c1=O)OCO3 | -0.364 | 23.4 | 16.8 | 59.4 | 2.5 |  | 
6 | Nc1ccc(-c2nnc(S)c3cc4c(cc23)OCO4)cc1 | -0.205 |  |  |  |  | 3.6 | ED50 [11]: 8.94 µmol/kg; ED50 [12]: 15.2 µmol/kg; TD50 [13]: 54.7 µmol/kg
7 | Sc1nnc(-c2ccccc2)c2cc3c(cc12)OCO3 | 0.05 |  |  |  |  | 3.2 | ED50 [14]: 27.8 µmol/kg; ED50 [15]: 22.5 µmol/kg; TD50 [16]: 89 µmol/kg
8 | Nc1cccc(-c2nnc(O)c3cc4c(cc23)OCO4)c1 | -0.399 |  |  |  |  | 3.1 | ED50 [17]: 23.3 µmol/kg; ED50 [18]: 15.7 µmol/kg; TD50 [19]: 72.4 µmol/kg
9 | CCCNC(=O)n1nc(-c2ccc(N)cc2)c2cc3c(cc2c1=O)OCO3 | -0.126 | 15.8 | 6.82 | 52.8 | 3.3 |  | 
10 | Nc1ccc(-c2nnc(O)c3cc4c(cc23)OCO4)cc1 | -0.454 |  |  |  |  | 2.8 | ED50 [20]: 21.2 µmol/kg; ED50 [21]: 23.8 µmol/kg; ED50 [22]: 29.7 µmol/kg; ED50 [23]: 56.9 µmol/kg; ED50 [24]: 32 µmol/kg; ED50 [25]: 43.6 µmol/kg; ED50 [26]: 21.2 µmol/kg; ED50 [27]: 7.56 µmol/kg; ED50 [28]: > 50 µmol/kg; ED50 [29]: 32.7 µmol/kg; ED50 [30]: 31.9 µmol/kg; ED50 [31]: 35.8 µmol/kg; ED50 [32]: 38.6 µmol/kg; TD50 [33]: 60.1 µmol/kg; ED50 [34]: 38.9 µmol/kg; ED50 [35]: 49.4 µmol/kg; ED50 [36]: 41.4 µmol/kg; ED50 [37]: 45.2 µmol/kg
11 | Nc1cccc(C2=NNC(=O)Cc3cc4c(cc32)OCO4)c1 | -0.372 |  |  |  |  | 5.6 | TD50 [38]: 101 µmol/kg
12 | O=C1Cc2cc3c(cc2C(c2ccccc2)=NN1)OCO3 | -0.142 |  |  |  |  | 3.7 | TD50 [39]: 159 µmol/kg
13 | CC1=NN=C(c2ccc(N)cc2)c2cc3c(cc2C1)OCO3 [GYKI-52466] | -0.304 |  |  |  |  | 2.1 | ED50 [40]: 37.3 µmol/kg; ED50 [41]: 43.1 µmol/kg; ED50 [42]: 63.8 µmol/kg; TD50 [43]: 76.1 µmol/kg
14 | CCNC(=O)n1nc(-c2ccc(N)cc2)c2cc3c(cc2c1=O)OCO3 | -0.235 | 42.6 | 35.1 | 91.1 | 2.1 |  | 
15 | O=[N+]([O-])c1ccc(-c2nnc(O)c3cc4c(cc23)OCO4)cc1 |  | > 100 | > 100 |  |  |  | 
16 | CCCCNC(=O)n1nc(-c2ccc(N)cc2)c2cc3c(cc2c1=O)OCO3 | 0.002 | 3.25 | 2.23 | 20.4 | 6.3 |  | ED50 [44]: 3.25 µmol/kg; ED50 [45]: 8.63 µmol/kg; ED50 [46]: 11.2 µmol/kg; ED50 [47]: 26.6 µmol/kg; ED50 [48]: 36.2 µmol/kg; ED50 [49]: 37 µmol/kg; ED50 [50]: 12.3 µM/kg; ED50 ([50]; Mus musculus, read-out: ED50): 17.6 µmol/kg; ED50 [51]: 44.1 µmol/kg; ED50 [52]: 13.9 µmol/kg; ED50 [53]: 47.4 µmol/kg; ED50 [54]: 36.2 µmol/kg; ED50 [55]: 30.1 µmol/kg; ED50 [56]: 41.9 µmol/kg; ED50 [57]: 33.1 µmol/kg
17 | CCCCNC(=O)n1nc(-c2cccc(N)c2)c2cc3c(cc2c1=O)OCO3 | 0.01 | 31.6 | 22.4 | 101 | 3.2 |  | 
